Measurements from patent US7476677B2, “Substituted thieno- and thiazolo- [2,3-d]pyrimidines and [2,3-c]pyridines as inhibitors of Tie2” (AstraZeneca AB, priority 2004, dated 2009).

Columns and labels:
Tie2 receptor = target: T1, Tie2 receptor (Homo sapiens, UniProt Q02763); assay: Cellular Tie2 autophosphorylation assay (Test (b)); type: cell-based; details: Ang1 ligand stimulated Tie2 autophosphorylation, e.g. EA.hy926/B3 cells, western blot
T1 construct: one can use natural cell lines or primary cells which are known to express the receptor of choice; endogenous in cells; host or cells: EA.hy926/B3 cells (HUVEC named as alternative)
T1 sequence (Q02763 23-1124): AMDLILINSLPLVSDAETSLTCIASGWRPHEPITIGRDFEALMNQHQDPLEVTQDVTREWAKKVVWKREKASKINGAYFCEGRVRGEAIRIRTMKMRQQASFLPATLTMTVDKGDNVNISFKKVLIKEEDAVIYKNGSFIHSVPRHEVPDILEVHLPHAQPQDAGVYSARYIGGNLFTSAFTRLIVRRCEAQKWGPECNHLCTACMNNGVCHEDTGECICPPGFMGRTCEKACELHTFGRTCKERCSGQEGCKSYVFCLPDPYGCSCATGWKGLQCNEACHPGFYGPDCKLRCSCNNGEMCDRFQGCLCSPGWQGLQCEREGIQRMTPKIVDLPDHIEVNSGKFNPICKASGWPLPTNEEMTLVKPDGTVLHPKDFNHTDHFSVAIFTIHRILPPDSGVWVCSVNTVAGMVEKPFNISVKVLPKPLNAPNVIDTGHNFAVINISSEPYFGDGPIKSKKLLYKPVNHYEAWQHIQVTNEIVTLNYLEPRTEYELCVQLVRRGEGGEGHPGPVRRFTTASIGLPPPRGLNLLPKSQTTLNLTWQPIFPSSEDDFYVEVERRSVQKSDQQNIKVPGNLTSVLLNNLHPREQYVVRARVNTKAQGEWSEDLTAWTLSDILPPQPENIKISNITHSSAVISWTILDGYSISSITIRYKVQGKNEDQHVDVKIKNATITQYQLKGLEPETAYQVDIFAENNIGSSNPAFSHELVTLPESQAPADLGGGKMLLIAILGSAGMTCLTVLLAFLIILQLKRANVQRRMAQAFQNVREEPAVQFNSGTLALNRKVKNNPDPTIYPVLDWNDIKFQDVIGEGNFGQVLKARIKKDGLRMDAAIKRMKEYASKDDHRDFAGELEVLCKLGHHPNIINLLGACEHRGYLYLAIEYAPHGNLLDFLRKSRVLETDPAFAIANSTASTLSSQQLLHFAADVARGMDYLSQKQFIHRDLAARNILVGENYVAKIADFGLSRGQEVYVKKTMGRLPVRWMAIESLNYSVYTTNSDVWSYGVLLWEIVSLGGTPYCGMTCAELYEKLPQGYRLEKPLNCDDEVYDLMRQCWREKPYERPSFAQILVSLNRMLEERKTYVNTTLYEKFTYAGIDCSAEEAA
From the text: b. Cellular Tie2 Autophosphorylation Assay
This assay is based on measuring the ability of compounds to inhibit autophosphorylation of the Tie2 receptor which normally leads to the production of “activated” receptor that in turn initiates the particular signal transduction pathways associated with the receptor function.
Autophosphorylation can be achieved by a number of means. It is known that expression of recombinant kinase domains in baculoviral systems can lead to the production of phosphorylated and activated receptor. […] In these cases the natural, external cell surface domain of the receptor has been replaced with that of a domain which is known to be readily dimerised via the addition of the appropriate ligand (e.g. TrkA-Tie2/NGF ligand (Marron, M. B., et al., 2000 Journal of Biological Chemistry: 275:39741-39746) or C-fms-Tie-1/CSF-1 ligand (Kontos, C. D., et al., 2002 Molecular and Cellular Biology: 22, 1704-1713). Thus when the chimaeric receptor expressed in a host cell line and the respective ligand is added, this induces autophosphorylation of the chimeric receptor's kinase domain. This approach has the advantage of often allowing a known (and often easily obtained) ligand to be used instead of having to identify and isolate the natural ligand for each receptor of interest. […]

[1] = target: T2, Tie2 receptor tyrosine kinase (Homo sapiens, UniProt Q02763); assay: In vitro receptor tyrosine kinase inhibition assay (Test (a), ELISA based); type: biochemical; details: recombinant human kinase domain lysate, synthetic peptide substrate, ATP 5 micromolar or Km
T2 construct: consist of only the intracellular portion C-terminal portion of the respective receptor, within which is found the kinase domain; made in house; host or cells: baculovirus/Sf21 insect cells, used as cleared lysate
T2 sequence (Q02763 770-1124 limits assumed): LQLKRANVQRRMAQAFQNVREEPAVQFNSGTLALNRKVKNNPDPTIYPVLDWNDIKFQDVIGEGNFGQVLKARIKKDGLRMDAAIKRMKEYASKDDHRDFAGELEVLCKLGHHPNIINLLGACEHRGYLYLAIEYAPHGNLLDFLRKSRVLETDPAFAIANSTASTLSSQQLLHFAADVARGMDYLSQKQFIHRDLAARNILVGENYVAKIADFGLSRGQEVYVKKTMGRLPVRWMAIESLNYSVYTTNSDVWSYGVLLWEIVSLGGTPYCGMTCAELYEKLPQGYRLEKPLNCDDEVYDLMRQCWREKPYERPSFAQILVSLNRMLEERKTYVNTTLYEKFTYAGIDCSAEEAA
Description: a. In Vitro Receptor Tyrosine Kinase Inhibition Assay
To test for inhibition of Tie2 receptor tyrosine kinase, compounds are evaluated in a non-cell based protein kinase assay by their ability to inhibit the protein kinase enzyme phosphorylation of a tyrosine containing polypeptide substrate in an ELISA based microtitre plate assay. In this particular case, the assay was to determine the IC50, for three different recombinant human tyrosine kinases Tie2, KDR and Flt.
To facilitate production of the tyrosine kinases, recombinant receptor genes were produced using standard molecular biology cloning and mutagenesis techniques. […]
Constitutive kinase activity of these recombinant proteins was determined by their ability to phosphorylate a synthetic peptide (made up of a random co-polymer of Glutamic Acid, Alanine and Tyrosine in the ratio of 6:3:1). […]
The immobilised phospho-peptide product of the reaction was detected by immunological methods. […] Following extensive washing with PBS-T, HRP activity in each well of the plate was measured colorimetrically using 22′-Azino-di-[3-ethylbenzthiazoline sulfonate (6)] diammonium salt crystals ABTS (Sigma P4922—prepared as per manufactures instructions) as a substrate incubated for 30-45 minutes to allow colour development, before 100 ul of 1M H2SO4 was added to stop the reaction. […]

SMILES: Cn1cnc(-c2cccc(NC(=O)Nc3cccc(F)c3)c2)c1-c1cc2c(N)ncnc2s1 [Example 1, N-{3-[5-(4-Aminothieno[2,3-d]pyrimidin-6-yl)-1-methyl-1H-imidazol-4-yl]phenyl}-N′-(3-fluorophenol)urea]
- IC50 (Tie2 receptor): 0.4 µM
- IC50 [1]: 16 µM
